US9090576B2, “2-substituted-p-quinone derivatives for treatment of oxidative stress diseases” (Edison Pharmaceuticals, Inc., priority 2008, dated 2015)
pEC50: −log10 of the molar value.

Key:
Type in all cases: cell-based
[1] = system: Human dermal fibroblasts from Friedreich's Ataxia patients; experiment: Rescue of BSO-stressed FRDA fibroblasts (Calcein AM viability); conditions: BSO-stressed FRDA fibroblasts (GM04078), less than about 150 nM, read-out: EC50, protection against FRDA
Outline: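 Patient FRDA fibroblasts (GM04078) seeded at 3,000 cells/well, given serially diluted compound from a 150 μM master solution, then stressed next day with 1 mM BSO.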

[2] = system: human dermal fibroblasts from CoQ10 deficient patients; experiment: Rescue of BSO-stressed fibroblasts from CoQ10 deficient patients (screen similar to Example A); conditions: Fibroblast, BSO-stressed fibroblasts from CoQ10 deficient patients harboring a CoQ2 mutation, less than about 150 nM, read-out: EC50, protection against CoQ10 deficiency
Description: (§1) A culture with FRDA fibroblasts was started from a 1 ml vial with approximately 500,000 cells stored in liquid nitrogen. Cells were propagated in 10 cm cell culture dishes by splitting every third day in a ratio of 1:3 until nine plates were available. Once confluent, fibroblasts were harvested. For 54 micro titer plates (96 well-MTP) a total of 14.3 million cells (passage eight) were re-suspended in 480 ml medium, corresponding to 100 μl medium with 3,000 cells/well. The remaining cells were distributed in 10 cm cell culture plates (500,000 cells/plate) for propagation. The plates were incubated overnight at 37° C. in an atmosphere with 95% humidity and 5% CO2 to allow attachment of the cells to the culture plate.
(§2) MTP medium (243 μl) was added to a well of the microtiter plate. The test compounds were unfrozen, and 7.5 μl of a 5 mM stock solution was dissolved in the well containing 243 μl medium, resulting in a 150 μM master solution. Serial dilutions from the master solution were made. The period between the single dilution steps was kept as short as possible (generally less than 1 second).
(§3) Plates were kept overnight in the cell culture incubator. The next day, 10 μl of a 10 mM BSO solution were added to the wells, resulting in a 1 mM final BSO concentration. Forty-eight hours later, three plates were examined under a phase-contrast microscope to verify that the cells in the 0% control (wells E1-H1) were clearly dead. The medium from all plates was discarded, and the remaining liquid was removed by gently tapping the plate inversed onto a paper towel.
(§4) 100 μl of PBS containing 1.2 μM Calcein AM were then added to each well. The plates were incubated for 50-70 minutes at room temperature. After that time the PBS was discarded, the plate gently tapped on a paper towel and fluorescence (excitation/emission wavelengths of 485 nm and 525 nm, respectively) was read on a Gemini fluorescence reader. Data was imported into Microsoft Excel (EXCEL is a registered trademark of Microsoft Corporation for a spreadsheet program) and used to calculate the EC50 concentration for each compound.
Compounds of the invention were tested using a screen similar to the one described in Example A, but substituting FRDA cells with cells obtained from CoQ10 deficient patients harboring a CoQ2 mutation. The compounds were tested for their ability to rescue human dermal fibroblasts from CoQ10 deficient patients from oxidative stress.

[3] = system: human dermal fibroblasts from LHON patients; experiment: Rescue of BSO-stressed fibroblasts from LHON patients (screen as Example A); conditions: Fibroblast, BSO-stressed LHON fibroblasts (GM03858), less than about 150 nM, read-out: EC50, protection against LHON
Outline: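 LHON patient fibroblasts (Coriell GM03858) at 3,000 cells/well were pre-treated overnight with compounds serially diluted from a 150 μM master solution. Surviving cells were stained with 1.2 μM Calcein AM for 50-70 min at RT and read by fluorescence (485/525 nm), giving EC50.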

[4] = system: human dermal fibroblasts from Huntington's patients; experiment: Rescue of BSO-stressed fibroblasts from Huntington's patients (screen as Example A); conditions: Fibroblast, BSO-stressed Huntington's fibroblasts (GM 04281), less than about 150 nM, read-out: EC50, protection against Huntington's
Outline: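 Coriell Huntington's line GM 04281 plated at 3,000 cells/well and attached overnight at 37 °C. Survival was read by Calcein AM (1.2 μM, 50-70 min, RT) fluorescence at 485/525 nm, giving EC50.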

[5] = system: human dermal fibroblasts from Parkinson's Disease patients; experiment: Rescue of BSO-stressed fibroblasts from Parkinson's Disease patients (screen as Example A); conditions: Fibroblast, BSO-stressed Parkinson's Disease fibroblasts (AG20439), less than about 150 nM, read-out: EC50, protection against PD
Description: as §1, §2, §3, §4
Compounds of the invention were screened as described in Example A, but substituting FRDA cells with Parkinson's Disease (PD) cells obtained from the Coriell Cell Repositories (Camden, N.J.; repository number AG20439). The compounds were tested for their ability to rescue human dermal fibroblasts from Parkinson's Disease patients from oxidative stress.

Measured: pEC50

COc1ccccc1CC(=O)NCCC1=C(C)C(=O)C(C)=C(C)C1=O [2-(2-methoxyphenyl)-N-(2-(2,4,5-trimethyl-3,6-dioxocyclohexa-1,4-dienyl)ethyl)acetamide]
> 6.82: [1] | [2]

CC1=C(C)C(=O)C(CCCC(=O)NCCc2ccccc2)=C(C)C1=O [N-phenethyl-4-(2,4,5-trimethyl-3,6-dioxocyclohexa-1,4-dienyl)butanamide]
> 6.82: [3] | [4] | [2]

CC1=C(C)C(=O)C(CCCC(=O)Nc2ccc3c(c2)OCCO3)=C(C)C1=O [N-(2,3-dihydrobenzo[b][1,4]dioxin-6-yl)-4-(2,4,5-trimethyl-3,6-dioxocyclohexa-1,4-dienyl)butanamide]
> 6.82: [1] | [3] | [4] | [2]

CC1=C(C)C(=O)C(CCNC(=O)c2ccc(C#N)cc2)=C(C)C1=O [4-cyano-N-(2-(2,4,5-trimethyl-3,6-dioxocyclohexa-1,4-dienyl)ethyl)benzamide]
> 6.82: [1] | [3] | [2]

CC1=C(C)C(=O)C(CCCC(=O)Nc2cccc(F)c2)=C(C)C1=O [N-(3-fluorophenyl)-4-(2,4,5-trimethyl-3,6-dioxocyclohexa-1,4-dienyl)butanamide]
> 6.82: [1] | [3] | [4] | [2]

CC1=C(C)C(=O)C(CCNC(=O)C(C)c2ccc(F)cc2)=C(C)C1=O (stereo not shown) [2-(4-fluorophenyl)-N-(2-(2,4,5-trimethyl-3,6-dioxocyclohexa-1,4-dienyl)ethyl)propanamide]
> 6.82: [1] | [2]

COc1ccc(C2(C(=O)NCCC3=C(C)C(=O)C(C)=C(C)C3=O)CC2)cc1 [1-(4-methoxyphenyl)-N-(2-(2,4,5-trimethyl-3,6-dioxocyclohexa-1,4-dienyl)ethyl)cyclopropanecarboxamide]
> 6.82: [1] | [2]

CC1=C(C)C(=O)C(CCNC(=O)Cc2cccc3ccccc23)=C(C)C1=O [2-(naphthalen-1-yl)-N-(2-(2,4,5-trimethyl-3,6-dioxocyclohexa-1,4-dienyl)ethyl)acetamide]
> 6.82: [1] | [2]

CC1=C(C)C(=O)C(CCNC(=O)C2(c3ccccc3)CC2)=C(C)C1=O [1-phenyl-N-(2-(2,4,5-trimethyl-3,6-dioxocyclohexa-1,4-dienyl)ethyl)cyclopropanecarboxamide]
> 6.82: [1] | [3] | [2]

CC1=C(C)C(=O)C(CCNC(=O)N(C)Cc2ccc(Cl)cc2)=C(C)C1=O [1-(4-chlorobenzyl)-1-methyl-3-(2-(2,4,5-trimethyl-3,6-dioxocyclohexa-1,4-dienyl)ethyl)urea]
> 6.82: [3] | [4] | [2]

CC1=C(C)C(=O)C(CCCC(=O)N2CCCc3ccccc32)=C(C)C1=O [2-(4-(3,4-dihydroquinolin-1 (2H)-yl)-4-oxobutyl)-3,5,6-trimethylcyclohexa-2,5-diene-1,4-dione]
> 6.82: [1] | [3] | [4] | [2]

CC1=C(C)C(=O)C(CCCC(=O)NCC2(O)CC2)=C(C)C1=O [N-((1-hydroxycyclopropyl)methyl)-4-(2,4,5-trimethyl-3,6-dioxocyclohexa-1,4-dienyl)butanamide]
> 6.82: [1] | [3] | [4] | [2]

CC1=C(C)C(=O)C(CCNC(=O)C(C)c2ccc(Cl)cc2)=C(C)C1=O (stereo not shown) [2-(4-chlorophenyl)-N-(2-(2,4,5-trimethyl-3,6-dioxocyclohexa-1,4-dienyl)ethyl)propanamide]
> 6.82: [1] | [4] | [2]

CC1=C(C)C(=O)C(CCCC(=O)Nc2ccc(F)c(F)c2)=C(C)C1=O [N-(3,4-difluorophenyl)-4-(2,4,5-trimethyl-3,6-dioxocyclohexa-1,4-dienyl)butanamide]
> 6.82: [5] | [1] | [3] | [4]

CC1=C(C)C(=O)C(CCNC(=O)NCc2cccnc2)=C(C)C1=O [1-(pyridin-3-ylmethyl)-3-(2-(2,4,5-trimethyl-3,6-dioxocyclohexa-1,4-dienyl)ethyl)urea]
> 6.82: [5] | [1] | [3] | [4]

CC1=C(C)C(=O)C(CCCC(=O)Nc2cc(F)cc(F)c2)=C(C)C1=O [N-(3,5-difluorophenyl)-4-(2,4,5-trimethyl-3,6-dioxocyclohexa-1,4-dienyl)butanamide]
> 6.82: [5] | [1] | [3] | [4]

CC1=C(C)C(=O)C(CCC(C)C(=O)Nc2ccccn2)=C(C)C1=O (stereo not shown) [2-methyl-N-(pyridin-2-yl)-4-(2,4,5-trimethyl-3,6-dioxocyclohexa-1,4-dienyl)butanamide]
> 6.82: [5] | [1] | [3] | [4]

CC1=C(C)C(=O)C(CCC(C)C(=O)NCc2ccccc2)=C(C)C1=O (stereo not shown) [N-benzyl-2-methyl-4-(2,4,5-trimethyl-3,6-dioxocyclohexa-1,4-dienyl)butanamide]
> 6.82: [5] | [1] | [3] | [4]

CC1=C(CCNC(N)=O)C(=O)C(c2ccc(Cl)cc2)=C(C)C1=O [1-(2-(5-(4-chlorophenyl)-2,4-dimethyl-3,6-dioxocyclohexa-1,4-dienyl)ethyl)urea]
> 6.82: [5] | [1] | [3] | [4]

CC1=C(C)C(=O)C(CCNC(=O)NCCN(C)C)=C(C)C1=O [1-(2-(dimethylamino)ethyl)-3-(2-(2,4,5-trimethyl-3,6-dioxocyclohexa-1,4-dienyl)ethyl)urea]
> 6.82: [5] | [1] | [3] | [4]

CC1=C(C)C(=O)C(CCCC(=O)Nc2c(Cl)cccc2Cl)=C(C)C1=O [N-(2,6-dichlorophenyl)-4-(2,4,5-trimethyl-3,6-dioxocyclohexa-1,4-dienyl)butanamide]
> 6.82: [5] | [1] | [3] | [4]

CC1=C(C)C(=O)C(CCNC(=O)NCCO)=C(C)C1=O [1-(2-hydroxyethyl)-3-(2-(2,4,5-trimethyl-3,6-dioxocyclohexa-1,4-dienyl)ethyl)urea]
> 6.82: [5] | [1] | [3] | [4]

CC1=C(C)C(=O)C(CCCC(=O)Nc2ccc(Cl)c(Cl)c2)=C(C)C1=O [N-(3,4-dichlorophenyl)-4-(2,4,5-trimethyl-3,6-dioxocyclohexa-1,4-dienyl)butanamide]
> 6.82: [5] | [1] | [3] | [4]

CC1=C(C)C(=O)C(CCNC(=O)CCc2ccc(F)cc2)=C(C)C1=O [3-(4-fluorophenyl)-N-(2-(2,4,5-trimethyl-3,6-dioxocyclohexa-1,4-dienyl)ethyl)propanamide]
> 6.82: [1] | [2]

CC1=C(C)C(=O)C(CCCC(=O)Nc2c(F)cccc2F)=C(C)C1=O [N-(2,6-difluorophenyl)-4-(2,4,5-trimethyl-3,6-dioxocyclohexa-1,4-dienyl)butanamide]
> 6.82: [5] | [1] | [3] | [4]
